Results published in ChEMBL document CHEMBL1201862, “PubChem BioAssay data set” (2004).
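Cultured in 96-well plates, cells were exposed to test compound for 48 hours across five concentrations. GI50 marks 50% less growth.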 Activity calls are given as the source filed them. Cut-off read from the data, not from the text of the source: active = GI50 up to about 1.1 µM and inactive = higher.

How the values were obtained:
Assay in all cases: inhibition of tumour cell growth, NCI panel, 48 h
[1] = tested on: RXF 631
[2] = tested on: M19-MEL
[3] = tested on: XF498
[4] = tested on: DLD-1
[5] = tested on: BT-549
[6] = tested on: KM-20L2
[7] = tested on: SNB-78
[8] = tested on: HOP-18
[9] = tested on: DMS-273

Measured: GI50

CCCCCCCC(=O)O[C@H]1[C@H]2[C@@H](CC1(C)C)C(=O)[C@]13O[C@H]1C(=O)[C@]1(CO1)[C@]23C
inactive: [1] 17.8 µM | [2] 3.41 µM | [3] 3.26 µM | [4] 1.89 µM | [5] 15.5 µM | [6] 4.89 µM | [7] 4.94 µM | [8] 5.33 µM | [9] 5.96 µM

Cc1cc2c(cc1C)[n+]([O-])c(C(=O)C/C(=N/OCCCc1ccccc1)C(=O)Nc1cc(Cl)ccc1Cl)c(C)[n+]2[O-]
inactive: [1] > 100 µM | [2] > 100 µM | [3] > 100 µM | [4] > 100 µM | [6] > 100 µM | [7] > 100 µM | [8] > 100 µM | [9] > 100 µM

N/C(=N\O)N/N=C/c1cccc(F)c1
inactive: [1] 26.1 µM | [2] 48.3 µM | [3] 43.7 µM | [4] 64 µM | [6] 32.2 µM | [7] > 100 µM | [8] 25.1 µM | [9] 48.9 µM

Cc1cn(C2C=CC(=O)C(C)O2)c(=O)[nH]c1=O (stereo unspecified)
inactive: [1] 15.2 µM | [2] 15.8 µM | [3] 13.5 µM | [4] 14.1 µM | [6] 16.3 µM | [7] 16.7 µM | [8] 15 µM | [9] 18.1 µM

CCOC(=O)C1=C(C)N(NC(=O)Nc2ccccc2)C2(N)N(NC(=O)Nc3ccccc3)C(C)=C(C(=O)OCC)C12C(=O)OCC (stereo unspecified)
inactive: [1] 51.9 µM | [2] 43.3 µM | [3] 12 µM | [4] 53.8 µM | [6] 75.9 µM | [7] 42.4 µM | [8] 26.7 µM | [9] 41.9 µM
